Source: ChEMBL document CHEMBL4364304, “Discovery, synthesis, and in vitro evaluation of a novel bioactive peptide for ACE and DPP-IV inhibitory activity” (Eur J Med Chem, 2019)
Residues, ends and D or L forms follow the SMILES beside them.

Columns and labels:
[1] = target: T1, Angiotensin-converting enzyme (Sus scrofa, UniProt F1RRW5); assay: (§1) Inhibition of porcine angiotensin converting enzyme assessed as release of hippuric acid using hippuryl-histidyl-leucine as substrate measured after 30 mins by spectrophotometry analysis
T1 sequence (F1RRW5 whole entry): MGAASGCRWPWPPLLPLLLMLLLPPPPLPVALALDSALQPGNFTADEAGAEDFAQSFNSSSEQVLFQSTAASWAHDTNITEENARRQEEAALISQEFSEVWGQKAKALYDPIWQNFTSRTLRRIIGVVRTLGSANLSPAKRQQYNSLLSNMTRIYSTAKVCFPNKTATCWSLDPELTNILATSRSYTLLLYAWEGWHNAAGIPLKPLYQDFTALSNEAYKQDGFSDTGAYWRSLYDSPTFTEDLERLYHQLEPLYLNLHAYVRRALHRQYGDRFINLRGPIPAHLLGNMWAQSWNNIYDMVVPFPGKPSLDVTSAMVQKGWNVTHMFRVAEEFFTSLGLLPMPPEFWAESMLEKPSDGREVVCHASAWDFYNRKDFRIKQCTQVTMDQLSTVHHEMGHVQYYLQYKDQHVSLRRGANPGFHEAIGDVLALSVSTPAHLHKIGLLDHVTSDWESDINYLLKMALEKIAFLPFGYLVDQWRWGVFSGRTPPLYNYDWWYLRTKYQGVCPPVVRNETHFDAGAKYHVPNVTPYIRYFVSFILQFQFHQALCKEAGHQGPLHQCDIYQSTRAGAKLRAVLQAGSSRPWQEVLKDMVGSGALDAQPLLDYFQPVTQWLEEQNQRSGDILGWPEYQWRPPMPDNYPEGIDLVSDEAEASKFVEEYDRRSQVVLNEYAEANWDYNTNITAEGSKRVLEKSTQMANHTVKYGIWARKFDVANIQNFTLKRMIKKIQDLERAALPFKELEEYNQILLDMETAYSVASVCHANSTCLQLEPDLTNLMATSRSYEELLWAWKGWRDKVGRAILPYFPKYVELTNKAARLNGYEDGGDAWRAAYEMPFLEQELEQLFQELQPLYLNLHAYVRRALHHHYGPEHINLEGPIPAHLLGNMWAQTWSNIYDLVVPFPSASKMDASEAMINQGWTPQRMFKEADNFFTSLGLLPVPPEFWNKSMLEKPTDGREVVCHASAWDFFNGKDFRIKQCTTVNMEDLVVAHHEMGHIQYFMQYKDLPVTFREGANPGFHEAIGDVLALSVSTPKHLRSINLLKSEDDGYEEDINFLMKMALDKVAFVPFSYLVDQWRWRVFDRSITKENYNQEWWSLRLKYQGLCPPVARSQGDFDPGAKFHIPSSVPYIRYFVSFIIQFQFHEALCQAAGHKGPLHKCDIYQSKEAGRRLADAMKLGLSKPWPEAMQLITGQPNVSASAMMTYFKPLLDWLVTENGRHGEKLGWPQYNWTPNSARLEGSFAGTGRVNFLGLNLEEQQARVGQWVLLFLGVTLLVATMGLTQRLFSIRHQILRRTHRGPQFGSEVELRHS

[2] = target: T2, Angiotensin-converting enzyme (Sus scrofa) (UniProt F1RRW5); assay: as §1
T2 sequence (whole entry): T1 sequence (F1RRW5 whole entry)

Dipeptidyl peptidase 4 = Dipeptidyl peptidase 4 (Homo sapiens, UniProt P27487); assay: Inhibition of recombinant human DPP4 using H-Gly-Pro conjugated amino methyl coumarin as substrate by fluorometric assay
Sequence of Dipeptidyl peptidase 4 (P27487 whole entry): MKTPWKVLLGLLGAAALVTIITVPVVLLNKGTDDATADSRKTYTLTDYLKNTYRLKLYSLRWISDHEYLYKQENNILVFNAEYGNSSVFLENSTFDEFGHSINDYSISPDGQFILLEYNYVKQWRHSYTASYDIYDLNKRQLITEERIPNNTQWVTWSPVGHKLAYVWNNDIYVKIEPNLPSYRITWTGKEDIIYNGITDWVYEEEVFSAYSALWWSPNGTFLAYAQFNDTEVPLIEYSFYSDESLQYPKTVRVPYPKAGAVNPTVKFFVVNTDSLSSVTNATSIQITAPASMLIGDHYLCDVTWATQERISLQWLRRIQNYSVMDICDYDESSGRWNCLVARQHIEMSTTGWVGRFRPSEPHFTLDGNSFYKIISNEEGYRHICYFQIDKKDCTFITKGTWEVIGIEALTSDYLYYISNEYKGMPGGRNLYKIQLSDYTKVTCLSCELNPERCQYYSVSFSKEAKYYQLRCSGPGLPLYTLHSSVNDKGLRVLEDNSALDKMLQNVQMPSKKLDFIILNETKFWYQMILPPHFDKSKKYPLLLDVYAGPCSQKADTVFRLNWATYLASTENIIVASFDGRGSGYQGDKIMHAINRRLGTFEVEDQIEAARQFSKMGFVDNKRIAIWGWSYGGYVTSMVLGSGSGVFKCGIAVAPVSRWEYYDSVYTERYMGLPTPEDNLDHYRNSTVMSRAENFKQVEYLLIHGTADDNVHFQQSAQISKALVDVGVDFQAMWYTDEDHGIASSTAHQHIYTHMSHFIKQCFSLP

In the case of `CC[C@H](C)[C@H](N)C(=O)N[C@@H](CCC(N)=O)C(=O)N[C@@H](CCCCN)C(=O)N[C@H](C(=O)N[C@@H](C)C(=O)NCC(=O)N[C@H](C(=O)N[C@@H](Cc1c[nH]c2ccccc12)C(=O)O)[C@@H](C)O)C(C)C` (H-IQKVAGTW-OH), the IC50 [1] is reported as 300 µM.

In the case of `CC[C@H](C)[C@H](NC(=O)[C@H](CC(C)C)NC(=O)[C@@H]1CCCN1C(=O)[C@H](CC(C)C)NC(=O)[C@@H]1CCCN1C(=O)[C@@H](NC(=O)CN)[C@@H](C)CC)C(=O)O` (H-GIPLPLI-OH), the inhibition [2] is reported as “Dose-dependent effect”, the IC50 [1] is reported as 74.3 µM and the IC50 (Dipeptidyl peptidase 4) is reported as 3830 µM.
